Patent US8101777B2, “Ionic liquids based on imidazolium salts incorporating a nitrile functionality” (Ecole Polytechnique Federale de Lausanne, priority 2003, dated 2012)

What was measured:
[1] = Viscosity, Brookfield DV-II+ viscometer; type: physicochemical
Procedure: The 1-methylimidazole and 1,2-dimethylimidazole and chloronitriles are purchased from Fluka, HPF6 and NaBF4 are purchased from Aldrich and are used as received without further purification. The synthesis of the imidazolium salts 1a-5a is performed under an inert atmosphere of dry nitrogen using standard Schlenk techniques in solvents dried using the appropriate reagents and distilled prior to use. All other compounds are made without precautions to exclude air or moisture. IR spectra are recorded on a Perkin-Elmer FT-IR 2000 system. […] Electrospray ionization mass spectra (ESI-MS) are recorded on a ThermoFinnigan LCQ™ Deca XP Plus quadrupole ion trap instrument on sample diluted in methanol.^19 Samples are infused directly into the source at 5 μL min^−1 using a syringe pump and the spray voltage is set at 5 kV and the capillary temperature at 50° C. Samples 2c, 3c, 4a, 4b and 4c are purified by filtration through silica and left under vacuum (ca. 0.1 mm Hg) at 40-50° C. in order to remove traces of salt impurities and volatile components. […] Density is determined with a picometer at room temperature (20±1° C.) on 1.0 ml of sample. The measurements are repeated three times and average values are used. Viscosities are measured with a Brookfield DV-II+ viscometer on 0.50 ml of sample. […] The measurements are performed in duplicate.

[2] = Solubility in common solvents
[3] = Density determined with a picometer; type: physicochemical; conditions: room temperature (20±1° C.), 1.0 ml of sample, average of three
Procedure: The 1-methylimidazole and 1,2-dimethylimidazole and chloronitriles are purchased from Fluka, HPF6 and NaBF4 are purchased from Aldrich and are used as received without further purification. The synthesis of the imidazolium salts 1a-5a is performed under an inert atmosphere of dry nitrogen using standard Schlenk techniques in solvents dried using the appropriate reagents and distilled prior to use. All other compounds are made without precautions to exclude air or moisture. IR spectra are recorded on a Perkin-Elmer FT-IR 2000 system. […] Electrospray ionization mass spectra (ESI-MS) are recorded on a ThermoFinnigan LCQ™ Deca XP Plus quadrupole ion trap instrument on sample diluted in methanol.^19 Samples are infused directly into the source at 5 μL min^−1 using a syringe pump and the spray voltage is set at 5 kV and the capillary temperature at 50° C. Samples 2c, 3c, 4a, 4b and 4c are purified by filtration through silica and left under vacuum (ca. 0.1 mm Hg) at 40-50° C. in order to remove traces of salt impurities and volatile components. […] Density is determined with a picometer at room temperature (20±1° C.) on 1.0 ml of sample. The measurements are repeated three times and average values are used. Viscosities are measured with a Brookfield DV-II+ viscometer on 0.50 ml of sample. The temperature of the samples is maintained to 25±1° C. by means of an external temperature controller. The measurements are performed in duplicate.

[4] = Stability of the nitrile-functionalised anion towards catalytic hydrogenation; type: physicochemical; conditions: 8 mg with RuCl2(PMe3)4 (1 mg) in acetone, H2 40 bar, 35° C., 48 hours
Procedure: The stability of the nitrile-functionalised anion towards catalytic hydrogenation is tested by pressurising a solution of K[CH3CH(BF3)CH2CN] (8 mg) and RuCl2(PMe3)4 (1 mg) in acetone (0.4 ml) with H2 (40 bar) at 35° C.

[5] = 25±1° C., 0.50 ml of sample, duplicate

Row | Compound | Viscosity ([1]; 20° C.) | Viscosity [1, 5] | Solubility in common solvents: Acetone [2] | Solubility in common solvents: Et2O [2] | Solubility in common solvents: EtOH [2] | Solubility in common solvents: H2O [2] | Solubility in common solvents: Hexane [2] | Density [3] | Reduction of the nitrile-functionalised anion under catalytic hydrogenation [4]
1 | [1-propylnitrile-3-methylimidazolium]BF4 [[C3CNmim][BF4]] | 230.0 cp | 230 mpa · s | miscible | immiscible | immiscible | miscible | immiscible | 1.87 g/mL | 
2 | Cn1cc[n+](CCCC(=O)O)c1.F[B-](F)(F)F [[C3COOHmim][BF4], 1-methyl-3-proylcarboxylimidazolium tetrafluoroborate, reference compound] | 4415 cp |  |  |  |  |  |  |  | 
3 | [1-butylnitrile-3-methylimidazolium]PF6 [[C4CNmim][PF6]] |  | 2181 mpa · s | miscible | immiscible | immiscible | partly | immiscible | 1.99 g/mL | 
4 | C=CC[n+]1ccn(C)c1.F[B-](F)(F)F [[CC═Cmim][BF4], 1-methyl-3-allylimidazolium tetrafluoroborate, reference compound] | 6110 cp |  |  |  |  |  |  |  | 
5 | [1-ethylnitrile-3-methylimidazolium]Cl [[C2CNmim][Cl]] |  | 2856 mpa · s | immiscible | immiscible | miscible | miscible | immiscible | 2.67 g/mL | 
6 | [1-ethyinitrile-3-methylimidazolium]BF4 [[C2CNmim][BF4]] |  | 65.5 mpa · s | miscible | immiscible | miscible | miscible | immiscible | 2.15 g/mL | 
7 | CCCCn1cc[n+](C)c1.F[B-](F)(F)F [[C4mim][BF4], 1-methyl-3-butylimidazolium tetrafluoroborate, reference compound] | 115.2 cp | 115.2 mpa · s | miscible | immiscible | immiscible | miscible |  | 1.14 g/mL | 
8 | CCCCn1cc[n+](C)c1.F[P-](F)(F)(F)(F)F [[C4mim][PF6], reference compound] |  | 320.3 mpa · s | miscible | immiscible | partly | partly | immiscible | 1.37 g/mL | 
9 | [1-butylnitrile-3-methylimidazolium]BF4 [[C4CNmim][BF4]] |  | 552.9 mpa · s | miscible | immiscible | immiscible | miscible | immiscible | 1.71 g/mL | 
10 | CC(CC#N)[B-](F)(F)F.[K+] (stereo not drawn) [K[CH3CH(BF3)CH2CN]] |  |  |  |  |  |  |  |  | No reduction was observed
11 | [1-butylnitrile-3-methylimidazolium]Cl [[C4CNmim][Cl]] |  | 5222 mpa · s | immiscible | immiscible | miscible | miscible | immiscible | 1.61 g/mL | 
